These are literature values, as cited in patent publication US7563785B2, “Quetiapine analogs and methods of use thereof” (Hypnion, Inc., priority 2004, dated 2009).

As a reminder, the Ki is a dissociation constant, usually derived from enzyme kinetics or from competition with a known ligand.

In the data set the target is T1, human recombinant M1 expressed in CHO cells (Homo sapiens, UniProt P11229).
T1 construct: purchased PerkinElmer, Inc., Wellesley, Mass; host or cells: CHO cells
T1 sequence (P11229 1-460): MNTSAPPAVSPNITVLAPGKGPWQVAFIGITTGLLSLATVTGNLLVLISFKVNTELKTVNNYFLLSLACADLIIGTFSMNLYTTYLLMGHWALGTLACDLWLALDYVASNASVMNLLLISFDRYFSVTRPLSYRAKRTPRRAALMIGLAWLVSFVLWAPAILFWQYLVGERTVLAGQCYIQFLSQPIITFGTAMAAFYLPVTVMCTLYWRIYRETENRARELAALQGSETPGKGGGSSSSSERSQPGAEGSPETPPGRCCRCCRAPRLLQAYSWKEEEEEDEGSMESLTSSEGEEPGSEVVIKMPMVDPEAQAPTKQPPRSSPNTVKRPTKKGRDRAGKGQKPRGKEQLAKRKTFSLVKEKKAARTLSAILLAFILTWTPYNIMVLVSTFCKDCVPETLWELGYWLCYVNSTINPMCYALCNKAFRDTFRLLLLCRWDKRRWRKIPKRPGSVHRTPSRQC
To be noted: reference compounds; read-out: Ki of reference compounds in M1 binding assay.

Turning to `C[N+]1(C)CCC(OC(=O)C(c2ccccc2)c2ccccc2)CC1` [4-DAMP methiodide], the inhibitory constant (Ki) is 270 pM.
